According to US6630075B2, “Use of fluorinated ketones in fire extinguishing compositions” (3M Innovative Properties Company, priority 1999, dated 2003):

Assay: Micro-Cup Burner Test (extinguishing concentration; Mass Ratio Calculation vs HALON 1211)
Conditions: for Mass Ratio to HALON™ 1211: calculated from extinguishing volume % and molecular weight relative to HALON 1211 (165 g/mole); for Ext. Conc. (vol %): volume % in air required to extinguish the flame within an average time of 30 seconds or less, propane fuel
From the text: The Micro-Cup Burner Test is a laboratory test which measures the extinguishing ability of an agent based on the quantity of agent required to extinguish a fire under the following test conditions. The Micro-Cup Burner Test utilizes a quartz concentric-tube laminar-diffusion flame burner (micro-cup burner, of similar design to the above-described cup apparatus) aligned vertically with all flows upward. A fuel, typically propane unless otherwise specified, flows at 10.0 sccm (standard cubic centimeters per minute) through a 5-mm I.D. inner quartz tube which is centered in a 15-mm I.D. quartz chimney. The chimney extends 4.5 cm above the inner tube. Air flows through the annular region between the inner tube and the chimney at 1000 sccm. Prior to the addition of extinguishing composition, a visually stable flame is supported on top of the inner tube, and the resulting combustion products flow out through the chimney. An extinguishing composition to be evaluated is introduced into the air stream upstream of the burner. Liquid compositions are introduced by a syringe pump (which is calibrated to within 1%) and are volatilized in a heated trap. Gaseous compositions are introduced via a mass-flow controller to the air stream upstream from the burner. For consistency, the air-gaseous composition mixture then flows through the heated trap prior to its introduction to the flame burner. All gas flows are maintained by electronic mass-flow controllers which are calibrated to within 2%. The fuel is ignited to produce a flame and is allowed to burn for 90 seconds. After 90 seconds, a specific flow rate of composition is introduced, and the time required for the flame to be extinguished is recorded. The reported extinguishing concentrations are the recorded volume % of extinguishing composition in air required to extinguish the flame within an average time of 30 seconds or less.
The above-mentioned cup burner test measures the performance of an extinguishing composition by determining the minimum volume percent of composition in air required to extinguish a test fire. However, it is often desirable to directly compare the fire performance of an experimental extinguishing composition (e.g., a fluorinated ketone) against the performance of a state-of-the-art extinguishing composition, such as HALON™ 1211 fire extinguishing agent (CF2ClBr, a bromochlorofluorocarbon). One way to make such a comparison is to derive the mass ratio of experimental composition to HALON™ 1211 fire extinguishing agent from the volume percentages of each composition required for extinguishing. The mass ratio can be calculated by dividing the experimental composition's extinguishing volume percent by the HALON™ 1211 agent's extinguishing volume percent and multiplying the resulting quotient (which, according to the ideal gas law, also represents the ratio of mole percents) times the weight average molecular weight of the experimental composition divided by the molecular weight of HALON™ 1211 agent (165 g/mole).
In Comparative Example C1, the extinguishing concentration (volume % in air) of HALON™ 1211 fire extinguishing agent was determined as using the Micro-Cup Burner Test.
In Examples 1-16, the extinguishing concentration of several perfluorinated ketones was also determined using the Micro-Cup Burner Test. The mass ratio as compared to HALON™ 1211 fire extinguishing agent was then calculated using the Mass Ratio Calculation.
In Comparative Examples C2-C11, various fluorinated extinguishing compositions known in the art (hydrofluorocarbons, perfluorocarbons, hydrochlorofluorocarbons, hydrofluoroethers, and iodofluorocarbons) were evaluated for their extinguishing concentration, and subsequently their mass ratios were calculated with respect to HALON™ 1211 agent. […]

| Structure (SMILES) | Mass Ratio to HALON™ 1211 | Ext. Conc. (vol %) |
| --- | --- | --- |
| O=C(C(F)(F)C(F)(F)C(F)(F)F)C(F)(C(F)(F)F)C(F)(F)F [Example 7, 1,1,1,2,4,4,5,5,6,6,6-undecafluoro-2-trifluoromethylhexan-3-one] | 2.21 | 3.6 |
| CC(=O)C(F)(F)C(F)(F)C(F)(F)C(F)(F)F [Comparative Example C13, perfluorobutyl methyl ketone, reference compound] | 2.77 | 6.3 |
| O=C(C(F)(F)C(F)F)C(F)(C(F)(F)F)C(F)(F)F [Example 6, 1,1,1,2,4,4,5,5-octafluoro-2-trifluoromethylpentan-3-one] | 2.20 | 4.4 |
| FC(C(F)(F)F)C(F)(F)F [Comparative Example C5, 1,1,1,2,3,3,3-heptafluoropropane, reference compound] | 1.90 | 6.6 |
| COC(F)(F)C(F)(F)C(F)(F)C(F)(F)F [Comparative Example C10, perfluorobutyl Methyl Ether, reference compound] | 2.52 | 6.1 |
| O=C(C(F)(F)C(F)(F)C(F)(F)F)C(F)(F)C(F)(F)C(F)(F)F [Example 12, 1,1,1,2,2,3,3,5,5,6,6,7,7,7tetradecafluoroheptan-4-one] | 2.64 | 4.3 |
| O=C(C(F)(F)C(F)(F)F)C(F)(F)C(F)(F)C(F)(F)F [Example 9, 1,1,1,2,2,4,4,5,5,6,6,6-dodecafluorohexan-3-one] | 2.39 | 4.5 |
| FC(F)(F)C(F)(F)C(F)(F)F [Comparative Example C6, perfluoro-n-propane, reference compound] | 2.05 | 6.5 |
| O=C(C(F)(F)C(F)(F)OC(F)(F)F)C(F)(C(F)(F)F)C(F)(F)F [Example 14, 1,1,2,2,4,5,5,5-octafluoro-1-trifluoromethoxy-4-trifluoromethylpentan-3-one] | 2.76 | 4.3 |
| O=C1C(F)(F)C(F)(F)C(F)(F)C(F)(F)C1(F)F [Example 15, decafluorocyclohexanone] | 2.80 | 6.0 |
| FC(F)(Cl)Br [Comparative Example C1, bromochlorodifluoromethane, reference compound] | 1.00 | 3.6 |
| FC(F)(F)CC(F)(F)F [Comparative Example C3, 1,1,1,3,3,3-hexafluoropropane, reference compound] | 1.61 | 6.3 |
| O=C(CC(=O)C(F)(F)F)C(F)(F)F [Example 10, 1,1,1,5,5,5-hexafluoropentan-2,4-dione] | 2.55 | 7.3 |
| COC(F)(F)C(F)(F)C(F)(F)F [Comparative Example C11, 1,1,1,2,2,3,3-heptafluoro-3-methoxypropane, reference compound] | 2.52 | 7.5 |
| FC(F)(F)C(F)(F)C(F)(F)C(F)(F)C(F)(F)C(F)(F)F [Comparative Example C8, perfluoro-n-hexane, reference compound] | 2.27 | 4.0 |
| O=C(C(F)(F)C(F)(F)C(F)(F)C(F)(F)F)C(F)(C(F)(F)F)C(F)(F)F [Example 16, 1,1,1,2,4,4,5,5,6,6,7,7,7-tridecafluoro-2-trifluoromethylheptan-3-one] | 3.00 | 4.3 |
| O=C(C(F)(F)F)C(F)(F)C(F)(F)F [Example 13, 1,1,1,3,3,4,4,4-octafluorobutan-2-one] | 2.68 | 7.4 |
| FC(F)(F)C(F)(F)C(F)(F)C(F)(F)F [Comparative Example C7, perfluoro-n-butane, reference compound] | 2.12 | 5.3 |
| CC(=O)C(F)(C(F)(F)F)C(F)(F)F [Comparative Example C12, 3,4,4,4-tetrafluoro-3-trifluoromethylbutan-2-one, reference compound] | 2.42 | 6.8 |
| FC(F)(F)I [Comparative Example C2, iodotrifluoromethane, reference compound] | 1.14 | 3.5 |
| COC(F)(C(F)(F)F)C(F)(C(F)(F)F)C(F)(F)F (stereo not shown) [Comparative Example C9, 1,1,1,2,3,4,4,4-octafluoro-3-trifluoromethyl-2-methoxybutane, reference compound] | 2.27 | 4.5 |
| O=C(C(F)(F)Cl)C(F)(C(F)(F)F)C(F)(F)F [Example 8, 1-chloro-1,1,3,4,4,4-hexafluoro-3-trifluoromethyl-butan-2-one] | 2.23 | 4.7 |
| O=C(C(F)(F)F)C(F)(F)C(F)(F)C(F)(F)C(F)(F)C(F)(F)C(F)(F)F [Example 4, 1,1,1,3,3,4,4,5,5,6,6,7,7,8,8,8-hexadecafluorooctan-2-one] | 2.17 | 3.1 |
| O=C(C(F)(C(F)(F)F)C(F)(F)F)C(F)(C(F)(F)F)C(F)(F)F [Example 2, 1,1,1,2,4,5,5,5,6,6,6-octafluoro-2,4-bis(trifluoromethyl)pentan-3-one] | 2.03 | 3.3 |
| O=C(C(F)(F)F)C(F)(C(F)(F)F)C(F)(F)F [Example 5, 1,1,1,3,4,4,4-heptafluoro-3-trifluoromethylbutan-2-one] | 2.19 | 4.9 |
| O=C(C(=O)C(F)(C(F)(F)F)C(F)(F)F)C(F)(C(F)(F)F)C(F)(F)F [Example 11, 1,1,1,2,5,6,6,6-octafluoro-2,5-bis(trifluoromethyl)hexan-3,4-dione] | 2.57 | 4.0 |
